Test results published in publication PMC10537604, “Development and Assessment of 1,5–Diarylpyrazole/Oxime Hybrids Targeting EGFR and JNK–2 as Antiproliferative Agents: A Comprehensive Study through Synthesis, Molecular Docking, and Evaluation” (Molecules, 2023).
Read-outs that look alike come from different tables or passages of the source.

Columns and labels:
[1] = tested on: human colorectal adenocarcinoma cell line DLD-1; assay: WST-8 antiproliferative assay, DLD-1; assay type: cell-based
Procedure: (§1) Compounds 7a–j, 8a–j, 9a–c, and 10a–c were evaluated for in vitro anticancer activities against five different cancer cell lines, namely, human colorectal adenocarcinoma cell lines DLD-1, human cervical cancer cell line Hela, human pancreatic cancer cell line SUIT-2, human myelogenous leukemia cell line K562, and human hepatocellular carcinoma cell line HepG2 using WST-8 assay at concentrations of 100 µM to investigate the growth inhibition percent (GI%) of each compound using daunorubicin as a reference drug. […]. […] So, as a conclusion on the SAR study of those compounds as antiproliferative agents, the oxime moiety potentiated the anticancer activity and electron donating groups on R1 and R2 played an important role on this activity. Moreover, the sulfamoyl moiety on R3 seems to play a potential role in the activity of the prepared compounds (Table 1).
(§2) All selected compounds and daunorubicin were recorded as the minimum concentration required to inhibit half cell growth (IC50) and the results are listed in Table 2.
(§3) Evaluation of anticancer activity was performed according to the standard water-soluble tetrazolium-8 (WST-8) assay at the Faculty of Engineering, Yamagata University, Yonezawa, Japan, using an MTP-310 absorbance microplate reader. The EGFR inhibitory assay was carried out at the Faculty of Engineering, Yamagata University, Yonezawa, Japan, according to the protocol enzyme linked immunosorbent assay (ELISA) kits (Douset sandwich ELISA test, recombinant mouse EGFR). The JNK-2 inhibitory assay was performed at the Faculty of Engineering, Yamagata University, Yonezawa, Japan, according to the protocol of enzyme-linked immunosorbent assay (ELISA), the assay was carried out using the JNK-2 kit (Simple Step ELISA, pT183/Y185, Abcam Company, Cambridge, CB2 0AX, UK). Apoptosis and cell cycle analysis was performed at Faculty of medicine, Yamagata University, Yamagata, Japan, using BD FACS melody. Molecular docking was performed at the Nano Medical Engineering Laboratory, RIKEN Cluster for Pioneering Researchers, RIEKN, Japan, using ICM-Pro 3.8 software (MolSoft L.L.C., San Diego, CA, USA).
(§4) According to the standard water-soluble tetrazolium-8 (WST-8) assay, the current synthesized compounds have been tested for their anticancer activities against different five cancer cell lines; DLD-1, Hela, K562, SUIT-2, and HepG2 and daunorubicin was used as reference drug by the WST-8 assay. The five cells were maintained in a suspension culture, (Dulbecco’s modified eagle medium (DMEM) for SUIT-2, Hela, and HepG2 or PRIM for K562 and DLD), supplemented with 5% FBS (Fetal Bovine Serum) containing 1% of a penicillin-streptomycin (1:1) mixture. A 100 μL aliquot of cells (10,000 cells/mL) was added to a 96 well plate and incubated for 24 h at 37 °C in a humidified incubator containing 5% CO2 in the air. After 24 h, a 10 μL aliquot of test compound (concentrations varying in the range of 10–150 µM) was added to each of the 96 wells and incubated for 24 h. Then A 10 μL WST-8 solution (mixture of WST-8 and 1-methoxy PMS) was added to each well and the incubation continued for 3 h. The visible absorbance at 450 nm and 630 nm as the reference wavelength of each well was quantified using an MTP-310 absorbance microplate reader. Daunorubicin was used as a positive control. The results of cytotoxicity were recorded as growth inhibition percentages and as IC50 values.

[2] = tested on: human cervical cancer cell line Hela; assay: WST-8 antiproliferative assay, Hela; assay type: cell-based; conditions: for inhibition at 100 µM: read-out: Growth Inhibition (GI%) Hela; for IC50: read-out: IC50 Hela
Procedure: as §1, §2, §3
as §4, with “After 24 h, a 10 μL aliquot of test compound (concentrations varying in the range of 10–150 µM) was added to each of the 96 wells and incubated for 24 h.” left out

[3] = tested on: human myelogenous leukemia cell line K562; assay: WST-8 antiproliferative assay, K562; assay type: cell-based
Procedure: as §1, §2, §3
as §4, with “After 24 h, a 10 μL aliquot of test compound (concentrations varying in the range of 10–150 µM) was added to each of the 96 wells and incubated for 24 h.” left out

[4] = tested on: human pancreatic cancer cell line SUIT-2; assay: WST-8 antiproliferative assay, SUIT-2; assay type: cell-based
Procedure: as §1, §2, §3, §4

[5] = tested on: human hepatocellular carcinoma cell line HepG2; assay: WST-8 antiproliferative assay, HepG2; assay type: cell-based
Procedure: as §1, §2, §3, §4

[6] = tested on: human colorectal adenocarcinoma cell line DLD-1; assay: WST-8 antiproliferative assay, DLD-1; assay type: cell-based; conditions: WST-8 assay, six concentrations 1-100 µM
[7] = tested on: human pancreatic cancer cell line SUIT-2; assay: WST-8 antiproliferative assay, SUIT-2; assay type: cell-based; conditions: WST-8 assay, six concentrations 1-100 µM
[8] = tested on: human hepatocellular carcinoma cell line HepG2; assay: WST-8 antiproliferative assay, HepG2; assay type: cell-based; conditions: WST-8 assay, six concentrations 1-100 µM
[9] = target: EGFR tyrosine kinase; set-up: method as in doi:10.21608/jabps.2021.77469.1129, PMID 24731281; conditions: literature values ref [4],[29]; read-out: EGFR tyrosine kinase inhibitory activity IC50; cited from earlier work
[10] = tested on: PC12 (rat adrenal-derived pheochromocytoma cells); assay: WST-8 cytotoxicity towards normal cell line PC12; assay type: cell-based; conditions: Rattus norvegicus, PC-12, read-out: percentage growth inhibition PC12
Procedure: The evaluation of normal cell viability is fundamental in analyzing the efficacy of target compounds and is often used in conjunction with cytotoxicity tests to help understand how target compound toxicity affects normal cell health. […] A 100 μL aliquot of cells (10,000 cells/mL) was added to a 96 well plate and incubated for 24 h at 37 °C in a humidified incubator containing 5% CO2 in the air. […] Then, a 10 μL WST-8 solution (mixture of WST-8 and 1-methoxy PMS) was added to each well and the incubation continued for 3 h. The visible absorbance at 450 nm and 630 nm as the reference wavelength of each well was quantified using an MTP-310 absorbance microplate reader. Daunorubicin was used as a positive control. The results of cytotoxicity were recorded as growth inhibition percentages and as IC50 values.

[11] = DLD-1, 100 µM, WST-8 assay, read-out: Growth Inhibition (GI%) DLD-1
[12] = Homo sapiens, K562, 100 µM, WST-8 assay, read-out: Growth Inhibition (GI%) K562
[13] = SUIT-2, 100 µM, WST-8 assay, read-out: Growth Inhibition (GI%) SUIT-2
[14] = HepG2, 100 µM, WST-8 assay, read-out: Growth Inhibition (GI%) HepG2

| melting point [°C] | IC50 [6] [µM] | IC50 [7] [µM] | SMILES | inhibition at 100 µM [1, 11] [%] | inhibition at 100 µM ([2]; 100 µM, WST-8 assay) [%] | inhibition at 100 µM [3, 12] [%] | inhibition at 100 µM [4, 13] [%] | inhibition at 100 µM [5, 14] [%] | IC50 [9] [µM] | also measured |
| --- | --- | --- | --- | --- | --- | --- | --- | --- | --- | --- |
| 110 to 112 | 13 | 45 | COc1cc(C(C)=O)ccc1OC(=O)c1cc(-c2ccc(C)cc2)n(-c2ccccc2)n1 [Compound 7b, 4–Acetyl–2–methoxyphenyl–1–phenyl 5–p–tolyl–1H–pyrazole–3–carboxylate] | 81 | 83 | 70 | 103 | 85 |  | IC50 ([2]; WST-8 assay, six concentrations 1-100 µM): 55 µM; IC50 [8]: 45 µM |
| 83 to 85 | 13 | 31 | COc1cc(C(C)=O)ccc1OC(=O)c1cc(-c2ccc(C)cc2)n(-c2ccc(S(N)(=O)=O)cc2)n1 [Compound 7g, 4–Acetyl–2–methoxyphenyl–1–(4–sulfamoylphenyl) 5–p–tolyl–1H–pyrazole–3–carboxylate] | 96.7 | 30 | 77 | 92 | 66 |  |  |
|  |  |  | COc1ccc(-c2cc(-c3ccc(C)c(C)c3)nn2C(N)=S)cc1 [Compound I] |  |  |  |  |  | 0.07 |  |
|  |  |  | COc1cccc2c1C(=O)c1c(O)c3c(c(O)c1C2=O)C[C@@](O)(C(C)=O)C[C@@H]3O[C@H]1C[C@H](N)[C@H](O)[C@H](C)O1 [Daunorubicin, daunorubicin, reference compound] |  |  |  |  |  |  | inhibition at 100 µM ([1]; DLD-1, read-out: Growth Inhibition (GI%) DLD-1): 82.5%; IC50 ([1]; DLD-1, read-out: IC50 DLD-1): 30 µM; inhibition at 100 µM [2]: 100%; IC50 [2]: 0.097 µM; inhibition at 100 µM ([3]; Homo sapiens, K562, read-out: Growth Inhibition (GI%) K562): 100%; IC50 ([3]; Homo sapiens, K562, read-out: IC50 K562, WST-8 assay, six concentrations 1-100 µM): 13 µM; IC50 ([3]; read-out: IC50 K562, WST-8 assay, six concentrations 1-100 µM): 13.3 µM; inhibition at 100 µM ([4]; SUIT-2, read-out: Growth Inhibition (GI%) SUIT-2): 92%; IC50 ([4]; SUIT-2, read-out: IC50 SUIT-2): 9 µM; inhibition at 100 µM ([5]; HepG2, read-out: Growth Inhibition (GI%) HepG2): 100%; IC50 ([5]; HepG2, read-out: IC50 HepG2): 22 µM; inhibition at 1 µM [10]: 81%; inhibition at 50 µM [10]: 107%; inhibition at 100 µM [10]: 113% |
|  |  |  | Cc1ccc(-c2cc(-c3ccc4ccccc4c3)n(C3=NC(=O)CS3)n2)cc1C [II] |  |  |  |  |  | 0.06 |  |
